# Patent US8236354B1, “Use of immunomodulators for the treatment of cancer” (ZOR Pharmaceuticals, LLC, priority 2012, dated 2012)
# Experiments:
# [1] = test system: advanced pancreatic cancer; settings: cited from earlier work; for median Overall Survival: survival from study enrollment to death from any cause
# [2] = test system: advanced (unresectable or metastatic) pancreatic adenocarcinoma; experiment: Phase 3 double-blind, randomized, placebo-controlled 3-stage trial: survival and time to symptom progression; format: in vivo, human
# Procedure: This was a double-blind, multicenter, randomized, 2-arm, parallel group, 3-stage trial. Median survival was the primary end-point calculated from Kaplan-Meier plots of survival of the Intention to Treat data set.
# The blood pharmacokinetic profiles of gemcitabine and VIRULIZIN® were assessed by an independent (unblinded) pharmacokinetics assessor. Stage 1 was performed at selected sites. Immune stimulation assays were also to be performed in these patients.
# The decision to discontinue patients from Stage 2 and move them into Stage 3 and to continue or discontinue study treatment was at the discretion of the investigator.
# However, if the investigator believed further chemotherapy was not in the best interest of the patient (based on hematological profile, symptom progression or no evidence of clinical benefit), the patient continued to receive best supportive care, with or without continued injections of VIRULIZIN® or placebo. The first 18 patients entering Stage 3 and receiving VIRULIZIN® or placebo plus intravenous infusions of 5-FU were to have blood samples taken to assess the pre- and post-dose plasma concentrations of 5-FU.
# Male or female patients, aged 18 years or older, with advanced (unresectable or metastatic) pancreatic adenocarcinoma (tumor staging definition—tumor, lymph nodes, metastasis [TNM] stages II, III or IV) who had not received previous systemic chemotherapy, who had Eastern Cooperative Oncology Group (ECOG) Score 0, 1 or 2, and life expectancy greater than or equal to 12 weeks were included in the study.
# (§1) VIRULIZIN® or placebo was administered as intramuscular injections of 3 mL with dosing 3 times weekly (Monday, Wednesday, Friday) in Stages 1, 2 and 3.
# (§2) Following pain stabilization screening, all randomized patients in Stages 1 and 2 received 30-minute intravenous infusions of gemcitabine at a dose of 1 g/m2 weekly for the first 7 weeks, followed by a week of rest. Subsequent cycles consisted of 28-day cycles with gemcitabine dosing on days 1, 8 and 15. Guidelines for dose reduction in case of toxicity were provided from the Official Product Prescribing Guidelines. Dosing continued until intolerance to gemcitabine developed, or there was symptom progression, or no evidence of clinical benefit. […] The patient's physician made the decision concerning 5-FU chemotherapy or best supportive care.
# Efficacy was evaluated based upon survival time, defined as the time from Baseline/Treatment Day 1 to the time of death from any cause. Time to progression of symptoms, consisting of: time to increase in pain (with consideration of analgesic consumption), time to deterioration in ECOG score, and time to weight loss.
# [3] = in vivo
# Procedure: as §1, §2
# Safety was evaluated based upon adverse events (AEs), laboratory tests, and vital signs.
# [4] = ECOG 0 or 1, treated in Stage 3, of 25 (VIRULIZIN plus 5-FU) / of 16 (placebo plus 5-FU) patients
# [5] = Efficacy evaluable, ECOG 0 or 1, value (95% CI)
# [6] = Efficacy evaluable, Overall, value (95% CI)
# [7] = Intention to Treat, ECOG 0 or 1, value (95% CI)
# [8] = Intention to Treat, Metastatic, value (95% CI)
# [9] = Intention to Treat, Overall, value (95% CI)
structure (smiles),measurement,setting,value
"O=c1[nH]cc(F)c(=O)[nH]1 [5-FU, 5-fluorouracil]",median Overall Survival,[1],4.2 months
"O=c1[nH]cc(F)c(=O)[nH]1 [Placebo plus 5-FU, 5-fluorouracil]",number of patients alive (censored) at the end of the study data collection period,[2]; [4],None
same,percent of patients alive (censored) at the end of the study data collection period,[2]; [4],0%
same,Median survival time from entry into study Stage 3 to death from any cause,"[2]; Intention to Treat, Stage 3 test product plus 5-FU, ECOG 0 or 1",2.94 months
same,Median survival time from entry into study Stage 3 to death from any cause,"[2]; Intention to Treat, Stage 3 test product plus 5-FU, ECOG 2",3.42 months
same,Median survival time from entry into study Stage 3 to death from any cause,"[2]; Intention to Treat, Stage 3 test product plus 5-FU, ECOG 2, listed as placebo plus 5-FU",3.43 months
same,Median survival time from entry into study Stage 3 to death from any cause,"[2]; Intention to Treat, Stage 3 test product plus 5-FU, Overall",3.22 months
"Nc1ccn([C@@H]2O[C@H](CO)[C@@H](O)C2(F)F)c(=O)n1 [Placebo plus gemcitabine, gemcitabine]",Abdominal pain (not otherwise specified): (%) of Patients,[3],(26.2) %
same,Abdominal pain (not otherwise specified): Number of Events,[3],96
same,Abdominal pain (not otherwise specified): Number of Patients,[3],56
same,Abdominal pain upper: (%) of Patients,[3],(11.7) %
same,Abdominal pain upper: Number of Events,[3],35
same,Abdominal pain upper: Number of Patients,[3],25
same,Alanine aminotransferase increased: (%) of Patients,[3],(7.0) %
same,Alanine aminotransferase increased: Number of Events,[3],21
same,Alanine aminotransferase increased: Number of Patients,[3],15
same,Anemia (not otherwise specified): (%) of Patients,[3],(43.9) %
same,Anemia (not otherwise specified): Number of Events,[3],206
same,Anemia (not otherwise specified): Number of Patients,[3],94
same,Anorexia: (%) of Patients,[3],(23.8) %
same,Anorexia: Number of Events,[3],71
same,Anorexia: Number of Patients,[3],51
same,Ascites: (%) of Patients,[3],(17.8) %
same,Ascites: Number of Events,[3],51
same,Ascites: Number of Patients,[3],38
same,Aspartate aminotransferase increased: (%) of Patients,[3],(8.9) %
same,Aspartate aminotransferase increased: Number of Events,[3],27
same,Aspartate aminotransferase increased: Number of Patients,[3],19
same,Back pain: (%) of Patients,[3],(9.8) %
same,Back pain: Number of Events,[3],30
same,Back pain: Number of Patients,[3],21
same,Blood alkaline phosphatase increased (not otherwise specified): (%) of Patients,[3],(9.8) %
same,Blood alkaline phosphatase increased (not otherwise specified): Number of Events,[3],28
same,Blood alkaline phosphatase increased (not otherwise specified): Number of Patients,[3],21
same,Constipation: (%) of Patients,[3],(18.7) %
same,Constipation: Number of Events,[3],57
same,Constipation: Number of Patients,[3],40
same,Dehydration: (%) of Patients,[3],(8.9) %
same,Dehydration: Number of Events,[3],26
same,Dehydration: Number of Patients,[3],19
same,Diarrhea (not otherwise specified): (%) of Patients,[3],(21.5) %
same,Diarrhea (not otherwise specified): Number of Events,[3],79
same,Diarrhea (not otherwise specified): Number of Patients,[3],46
same,Disease progression (not otherwise specified): (%) of Patients,[3],(11.7) %
same,Disease progression (not otherwise specified): Number of Events,[3],25
same,Disease progression (not otherwise specified): Number of Patients,[3],25
same,Dyspnea (not otherwise specified): (%) of Patients,[3],(15.4) %
same,Dyspnea (not otherwise specified): Number of Events,[3],46
same,Dyspnea (not otherwise specified): Number of Patients,[3],33
same,Edema peripheral: (%) of Patients,[3],(24.3) %
same,Edema peripheral: Number of Events,[3],76
same,Edema peripheral: Number of Patients,[3],52
same,Fatigue: (%) of Patients,[3],(36.0) %
same,Fatigue: Number of Events,[3],178
same,Fatigue: Number of Patients,[3],77
same,Headache (not otherwise specified): (%) of Patients,[3],(6.5) %
same,Headache (not otherwise specified): Number of Events,[3],42
same,Headache (not otherwise specified): Number of Patients,[3],14
same,Jaundice (not otherwise specified): (%) of Patients,[3],(11.7) %
same,Jaundice (not otherwise specified): Number of Events,[3],30
same,Jaundice (not otherwise specified): Number of Patients,[3],25
same,Leukopenia (not otherwise specified): (%) of Patients,[3],(13.6) %
same,Leukopenia (not otherwise specified): Number of Events,[3],67
same,Leukopenia (not otherwise specified): Number of Patients,[3],29
same,Nausea: (%) of Patients,[3],(42.1) %
same,Nausea: Number of Events,[3],269
same,Nausea: Number of Patients,[3],90
same,Neutropenia: (%) of Patients,[3],(32.2) %
same,Neutropenia: Number of Events,[3],212
same,Neutropenia: Number of Patients,[3],69
same,Pyrexia: (%) of Patients,[3],(30.4) %
same,Pyrexia: Number of Events,[3],184
same,Pyrexia: Number of Patients,[3],65
same,Rash (not otherwise specified): (%) of Patients,[3],(9.3) %
same,Rash (not otherwise specified): Number of Events,[3],26
same,Rash (not otherwise specified): Number of Patients,[3],20
same,Rigors: (%) of Patients,[3],(15.4) %
same,Rigors: Number of Events,[3],97
same,Rigors: Number of Patients,[3],33
same,Thrombocytopenia: (%) of Patients,[3],(29.9) %
same,Thrombocytopenia: Number of Events,[3],196
same,Thrombocytopenia: Number of Patients,[3],64
same,Vomiting (not otherwise specified): (%) of Patients,[3],(29.4) %
same,Vomiting (not otherwise specified): Number of Events,[3],141
same,Vomiting (not otherwise specified): Number of Patients,[3],63
same,Weakness: (%) of Patients,[3],(23.8) %
same,Weakness: Number of Events,[3],82
same,Weakness: Number of Patients,[3],51
same,Weight decreased: (%) of Patients,[3],(12.1) %
same,Weight decreased: Number of Events,[3],38
same,Weight decreased: Number of Patients,[3],26
same,"Median survival time, study enrollment to death from any cause",[2]; [5],6.3 (5.0 to 7.2) months
same,Percent 12-Month Survival,[2]; [5],20.1 (12.8 to 27.4) %
same,"Median survival time, study enrollment to death from any cause","[2]; Efficacy evaluable, ECOG 2, value (95% CI)",5.5 (4.3 to 7.4) months
same,"Median survival time, study enrollment to death from any cause","[2]; Efficacy evaluable, Locally advanced disease, value (95% CI)",8.1 (7.1 to 11.2) months
same,"Median survival time, study enrollment to death from any cause","[2]; Efficacy evaluable, Metastatic disease, value (95% CI)",5.0 (4.3 to 6.0) months
same,Percent 12-Month Survival,"[2]; Efficacy evaluable, Metastatic, value (95% CI)",10.9 (5.4 to 16.4) %
same,"Median survival time, study enrollment to death from any cause",[2]; [6],6.0 (5.1 to 7.0) months
same,Percent 12-Month Survival,[2]; [6],16.9 (11.2 to 22.6) %
same,"Median survival time, study enrollment to death from any cause","[2]; Efficacy evaluable, Patients participating in study Stage 3, value (95% CI)",7.4 (6.8 to 8.6) months
same,median duration of participation in study Stages 1 and/or 2,"[2]; FIG. 5, 248 Intention to Treat patients who participated in study Stage 3",6.31 months
same,median duration of participation in study Stages 1 and/or 2,"[2]; FIG. 6, Stage 3 participants, High ECOG score of 2",6.31 months
same,median duration of participation in study Stages 1 and/or 2,"[2]; FIG. 6, Stage 3 participants, Low ECOG score of 0 or 1",7.13 months
same,Median survival time from study enrollment to death from any cause,[2]; [7],6.4 (5.0 to 7.3) months
same,Percent 12-Month Survival,[2]; [7],21.1 (14.3 to 28.0) %
same,Median survival time from study enrollment to death from any cause,"[2]; Intention to Treat, ECOG 0 or 1, value (95% CI), listed as placebo and gemcitabine",6.4 months
same,Median survival time from study enrollment to death from any cause,"[2]; Intention to Treat, ECOG 0 or 1, value (95% CI), listed as placebo plus gemcitabine",6.4 months
same,Median survival time from study enrollment to death from any cause,"[2]; Intention to Treat, ECOG 2, value (95% CI)",5.1 (4.1 to 6.8) months
same,Median survival time from study enrollment to death from any cause,"[2]; Intention to Treat, ECOG 2, value (95% CI), listed as placebo and gemcitabine",5.1 months
same,Median survival time from study enrollment to death from any cause,"[2]; Intention to Treat, ECOG 2, value (95% CI), listed as placebo plus gemcitabine",6.4 months
same,time to progression of pain from time of randomization,"[2]; Intention to Treat, ECOG score of 0 or 1",9.0 mo
same,Median survival time from study enrollment to death from any cause,"[2]; Intention to Treat, Locally advanced, value (95% CI)",8.4 (7.1 to 11.2) months
same,Median survival time from study enrollment to death from any cause,[2]; [8],5.0 (4.3 to 6.0) months
same,Percent 12-Month Survival,[2]; [8],13.3 (8.0 to 18.6) %
same,Median survival time from study enrollment to death from any cause,[2]; [9],6.0 (5.1 to 7.0) months
same,Percent 12-Month Survival,[2]; [9],17.7 (12.3 to 23.0) %
same,Median survival time from study enrollment to death from any cause,"[2]; Intention to Treat, Overall, value (95% CI), listed as placebo plus gemcitabine",6.0 months
same,Median survival time from study enrollment to death from any cause,"[2]; Intention to Treat, Patients participating in study Stage 3, value (95% CI)",7.5 (6.8 to 9.4) months
same,Median survival time from study enrollment to death from any cause,"[2]; Intention to Treat, Patients participating in study Stage 3, value (95% CI), listed as placebo plus gemcitabine",7.5 months
same,Median survival time from entry into study Stage 3 to death from any cause,"[2]; Intention to Treat, Stage 3 test product with or without 5-FU, ECOG 0 or 1",3.19 months
same,Median survival time from entry into study Stage 3 to death from any cause,"[2]; Intention to Treat, Stage 3 test product with or without 5-FU, ECOG 2",2.79 months
same,Median survival time from entry into study Stage 3 to death from any cause,"[2]; Intention to Treat, Stage 3 test product with or without 5-FU, Overall",2.96 months
same,Median survival time from study enrollment to death from any cause,"[2]; Intention to Treat, patients participating in study Stage 3, ECOG 0 or 1",7.13 months
same,Median survival time from study enrollment to death from any cause,"[2]; Intention to Treat, patients participating in study Stage 3, ECOG 2",6.31 months
Nc1ccn([C@@H]2O[C@H](CO)[C@@H](O)C2(F)F)c(=O)n1 [gemcitabine],increased median survival versus 5-FU,[1]; in vivo,1.5 months
same,median Overall Survival,[1],5.7 months
